This note sets out measurements from patent US6472392B1, “Triazole compounds and the use thereof as dopamine-D3 -ligands” (Abbott Laboratories, priority 1997, dated 2002).

`Cn1c(C=CCCN2CCN(c3cc(C(C)(C)C)nc(C(C)(C)C)n3)CC2)nnc1-c1ccccc1` [Example 21, 3-{4-[4-(2,6-Di-t-butylpyrimidin-4-yl)piperazin-1-yl]but-1-enyl}-4-methyl-5-phenyl-1,2,4-(4H)-triazole] displayed a melting point of 156 to 161 °C.

`Cn1c(CCCCN2CCN(c3cc(C(C)(C)C)nc(C(C)(C)C)n3)CC2)nnc1-c1ccccc1` [Example 22, 3-{4-[4-(2,6-Di-t-butylpyrimidin-4-yl)piperazin-1-yl]butyl}-4-methyl-5-phenyl-1,2,4-(4H)-triazole] came in with a melting point of 144 to 145 °C.
